Inhibition and Ki data for 18 compounds are collected here from patent US8058475B2, “Substituted cyclohexylmethyl compounds” (Gruenenthal GmbH, priority 2005, dated 2011).

One experiment addresses human μ-opiate receptor (Homo sapiens, UniProt P35372). The experiment can be described thus: Affinity for the human μ-opiate receptor ([3H]-naloxone displacement, SPA, CHO-K1 membrane preparation). The class given is binding. Conditions: for inhibition at 1 µM: read-out: μ-Opioid receptor, % inhibition [1 μM]; for Ki: read-out: μ-Opioid receptor, Ki.
Another experiment has as its target T1, Serotonin (5HT) reuptake (Rattus norvegicus, UniProt P31652).
T1 construct: synaptosomes are freshly isolated from areas of rat brain; from tissue; host or cells: rat brain synaptosomes (P2 fraction)
The experiment can be described thus: Serotonin (5HT) reuptake inhibition in rat brain synaptosomes (P2 fraction). The class given is biochemical. Particulars: for inhibition at 10 µM: read-out: Serotonin reuptake, % inhibition [10 μM]. The source says:
(§1) Noradrenaline (NA) and Serotonin (5HT) Reuptake Inhibition
(§2) In order to be able to carry out these studies in vitro, synaptosomes are freshly isolated from areas of rat brain. A so-called “P2” fraction prepared by the method of Gray and Whittaker (E. G. Gray and V. P. Whittaker (1962) J. Anat. 76, 79-88) is used in each case. For the NA uptake, these vesicular particles are isolated from the hypothalamus of male rat brains.
(§3) A detailed description of the method will be found in the literature (M. Ch. Frink, H. H. Hennies, W. Englberger, M. Haurand and B. Wilffert (1996) Arzneim.-Forsch./Drug Res. 46 (III), 11, 1029-1036).

Experiment [1] addresses T2, Noradrenaline (NA) reuptake (Rattus norvegicus, UniProt Q63380).
T2 construct: synaptosomes are freshly isolated from areas of rat brain; from tissue; host or cells: rat hypothalamus synaptosomes (P2 fraction)
The experiment can be described thus: Noradrenaline (NA) reuptake inhibition in rat brain synaptosomes (hypothalamus, P2 fraction). It counts as biochemical.
Description: as §1, §2, §3

Where [2] appears, read: read-out: Na reuptake, % inhibition [10 μM].
Where [3] appears, read: read-out: NA reuptake, % inhibition [10 μM].
The mark [4] stands for this setting: 1 μM test substance, inhibition of specific [3H]-naloxone binding.

Counter-ions that a name gives are not always drawn. Like-named read-outs stand apart in the source and are kept apart here.

Sequence of human μ-opiate receptor (P35372 whole entry): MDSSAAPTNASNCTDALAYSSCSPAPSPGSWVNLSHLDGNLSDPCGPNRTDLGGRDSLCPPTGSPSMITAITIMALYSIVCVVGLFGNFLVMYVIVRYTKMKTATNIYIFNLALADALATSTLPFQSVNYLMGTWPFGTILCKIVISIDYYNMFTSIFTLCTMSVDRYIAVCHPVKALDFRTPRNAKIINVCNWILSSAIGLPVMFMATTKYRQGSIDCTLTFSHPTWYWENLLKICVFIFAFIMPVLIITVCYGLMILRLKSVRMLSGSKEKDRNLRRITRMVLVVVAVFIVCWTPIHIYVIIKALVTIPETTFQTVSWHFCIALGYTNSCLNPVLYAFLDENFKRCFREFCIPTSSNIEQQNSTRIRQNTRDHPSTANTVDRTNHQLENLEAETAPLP
T1 sequence (P31652 whole entry): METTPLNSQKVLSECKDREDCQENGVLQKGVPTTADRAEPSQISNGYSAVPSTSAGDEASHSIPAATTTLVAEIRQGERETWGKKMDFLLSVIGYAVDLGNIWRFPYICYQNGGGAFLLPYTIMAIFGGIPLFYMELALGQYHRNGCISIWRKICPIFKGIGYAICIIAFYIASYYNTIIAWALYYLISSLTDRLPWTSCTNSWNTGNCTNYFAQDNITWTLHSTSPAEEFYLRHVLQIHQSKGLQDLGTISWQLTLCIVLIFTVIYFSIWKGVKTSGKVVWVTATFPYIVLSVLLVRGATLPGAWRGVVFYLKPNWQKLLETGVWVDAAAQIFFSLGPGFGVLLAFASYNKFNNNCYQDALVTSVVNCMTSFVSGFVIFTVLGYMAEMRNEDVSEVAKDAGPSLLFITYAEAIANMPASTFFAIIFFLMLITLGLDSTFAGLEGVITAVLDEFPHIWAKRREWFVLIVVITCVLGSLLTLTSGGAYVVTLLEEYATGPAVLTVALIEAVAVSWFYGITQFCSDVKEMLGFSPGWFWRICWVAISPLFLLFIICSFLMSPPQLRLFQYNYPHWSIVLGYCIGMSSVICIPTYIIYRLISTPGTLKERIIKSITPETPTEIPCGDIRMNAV
T2 sequence (Q63380 1-617): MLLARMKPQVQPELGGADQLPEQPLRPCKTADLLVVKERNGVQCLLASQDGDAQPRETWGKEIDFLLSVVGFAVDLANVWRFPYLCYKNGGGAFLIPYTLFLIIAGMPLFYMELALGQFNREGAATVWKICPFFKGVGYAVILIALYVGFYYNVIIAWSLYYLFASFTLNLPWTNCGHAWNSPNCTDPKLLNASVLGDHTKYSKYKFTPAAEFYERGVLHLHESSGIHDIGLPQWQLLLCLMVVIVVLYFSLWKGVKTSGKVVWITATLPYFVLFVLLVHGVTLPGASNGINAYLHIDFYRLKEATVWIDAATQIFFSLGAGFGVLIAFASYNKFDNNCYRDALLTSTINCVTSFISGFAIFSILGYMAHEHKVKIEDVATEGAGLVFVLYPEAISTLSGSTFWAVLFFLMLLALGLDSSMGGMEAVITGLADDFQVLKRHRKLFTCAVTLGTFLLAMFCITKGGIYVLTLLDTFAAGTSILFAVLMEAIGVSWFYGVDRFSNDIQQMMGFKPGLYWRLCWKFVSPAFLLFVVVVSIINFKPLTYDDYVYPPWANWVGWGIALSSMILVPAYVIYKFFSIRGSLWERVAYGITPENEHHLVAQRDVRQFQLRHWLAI

`CCC(CC)C(=O)NC1CCC(C(c2ccccc2)N(C)C)CC1` (stereo not shown) [compound 93, N-(4-((dimethylamino)(phenyl)methyl)cyclohexyl)-2-ethylbutanamide hydrochloride]: at human μ-opiate receptor, the inhibition at 1 µM was determined as 94% and the inhibitory constant (Ki) was 94 nM. On Serotonin (5HT) reuptake, the inhibition constant Ki was determined as 660 nM and the inhibition at 10 µM was found to be 75%. In addition, the inhibition at 10 µM in experiment [1] (setting [2]) stood at 48%.
In the case of `CC(=O)N(c1ccccc1)C1CCC(C(c2ccccc2)N(C)C)CC1` (stereo not shown) [compound 96, N-(4-((dimethylamino)(phenyl)methyl)cyclohexyl)-N-phenylacetamide hydrochloride], the inhibition at 1 µM on human μ-opiate receptor was 99%. Also, the Ki came out at 86 nM on human μ-opiate receptor, 660 nM at Serotonin (5HT) reuptake and 800 nM in experiment [1]. Further, the inhibition at 10 µM at Serotonin (5HT) reuptake was determined as 83%; in experiment [1] (setting [2]), 88%.
For the compound `CCC(=O)N(CCCCc1ccccc1)C1CCC(C(c2ccccc2)N(C)C)CC1` (stereo not shown) [compound 97, N-(4-((dimethylamino)(phenyl)methyl)cyclohexyl)-N-(4-phenylbutyl)propionamide hydrochloride], on human μ-opiate receptor, the inhibition at 1 µM is 97%. Moreover, the Ki at human μ-opiate receptor came to 3.7 nM; on Serotonin (5HT) reuptake, 990 nM; in experiment [1], 700 nM. Besides, the inhibition at 10 µM on Serotonin (5HT) reuptake was 76%; in experiment [1] (setting [2]), 94%.
As for `COc1ccc(N(C(C)=O)C2CCC(C(c3ccccc3)N(C)C)CC2)cc1` (stereo not shown) [compound 99, N-(4-((dimethylamino)(phenyl)methyl)cyclohexyl)-N-(4-methoxyphenyl)-acetamide hydrochloride], on human μ-opiate receptor, the inhibition at 1 µM came out at 77% and the inhibition constant Ki amounted to 470 nM. Moreover, at Serotonin (5HT) reuptake, the inhibition constant Ki was found to be 540 nM and the inhibition at 10 µM worked out at 83%. Further, the inhibition at 10 µM in experiment [1] (setting [2]) came out at 75%.
As to `CC(=O)N(Cc1ccccc1)C1CCC(C(c2ccccc2)N(C)C)CC1` (stereo not shown) [compound 100, N-benzyl-N-(4-((dimethylamino)(phenyl)methyl)cyclohexyl)acetamide hydrochloride], on human μ-opiate receptor, the inhibition at 1 µM turned out to be 100%. The results for the Ki (at human μ-opiate receptor; at Serotonin (5HT) reuptake; in experiment [1]) were 3.5 nM, 520 nM and 320 nM, respectively. Besides, the inhibition at 10 µM stood at 86% on Serotonin (5HT) reuptake and 91% in experiment [1] (setting [2]).
Regarding `CCC(CC)C(=O)N(Cc1ccccc1)C1CCC(C(c2ccccc2)N(C)C)CC1` (stereo not shown) [compound 101, N-benzyl-N-(4-((dimethylamino)(phenyl)methyl)cyclohexyl)-2-ethylbutanamide hydrochloride], at human μ-opiate receptor, the inhibition at 1 µM stood at 101%. For the same compound, the Ki at human μ-opiate receptor was 2.3 nM; on Serotonin (5HT) reuptake, 880 nM; in experiment [1], 670 nM. Moreover, the inhibition at 10 µM on Serotonin (5HT) reuptake turned out to be 81%; in experiment [1] (setting [2]), 86%.
For `CN(C)C(c1ccccc1)C1CCC(N(Cc2ccccc2)C(=O)c2ccc(F)cc2)CC1` (stereo not shown) [compound 103, N-benzyl-N-(4-((dimethylamino)(phenyl)methyl)cyclohexyl)-4-fluoro-benzamide hydrochloride], the inhibition at 1 µM at human μ-opiate receptor is 99%. The Ki on human μ-opiate receptor was found to be 8.8 nM; on Serotonin (5HT) reuptake it was 560 nM; in experiment [1] it was 400 nM. Also, the inhibition at 10 µM is 93% at Serotonin (5HT) reuptake and 87% in experiment [1] (setting [2]).
`CN(C)C(c1ccccc1)C1CCC(N(Cc2ccccc2)C(=O)c2ccccc2)CC1` (stereo not shown) [compound 104, N-benzyl-N-(4-((dimethylamino)(phenyl)methyl)cyclohexyl)benzamide hydrochloride]: the inhibition at 1 µM at human μ-opiate receptor was found to be 92%. Besides, the inhibition constant (Ki) stood at 14 nM at human μ-opiate receptor, 440 nM on Serotonin (5HT) reuptake and 320 nM in experiment [1]. Further, the inhibition at 10 µM worked out at 90% on Serotonin (5HT) reuptake and 92% in experiment [1] (setting [2]).
For `CCC(CC)C(=O)N(c1ccccc1)C1CCC(C(c2ccccc2)N(C)C)CC1` (stereo not shown) [compound 105, N-(4-((dimethylamino)(phenyl)methyl)cyclohexyl)-2-ethyl-N-phenylbutanamide hydrochloride], at human μ-opiate receptor, the inhibition at 1 µM was determined as 100% and the inhibitory constant (Ki) was 20 nM. The inhibition at 10 µM on Serotonin (5HT) reuptake worked out at 85%. In experiment [1] (setting [2]), the inhibition at 10 µM was determined as 88%.
As for `CN(C)C(c1ccccc1)C1CCC(NS(=O)(=O)c2ccc(Cl)cc2)CC1` (stereo not shown) [compound 106, 4-chloro-N-(4-((dimethylamino)(phenyl)methyl)cyclohexyl)benzene-sulfonamide hydrochloride], the inhibition at 1 µM on human μ-opiate receptor (1 μM, sulfonamides (Table 17)) is 96%. The Ki at human μ-opiate receptor (sulfonamides (Table 17)) amounted to 3.7 nM. In addition, the values for the inhibition at 10 µM (on Serotonin (5HT) reuptake; in experiment [1] (setting [3])) were 83% and 68%, respectively.
In the case of `COc1ccc(S(=O)(=O)NC2CCC(C(c3ccccc3)N(C)C)CC2)cc1` (stereo not shown) [compound 107, N-(4-((dimethylamino)(phenyl)methyl)cyclohexyl)-4-methoxybenzene-sulfonamide hydrochloride], at human μ-opiate receptor (1 μM, sulfonamides (Table 17)), the inhibition at 1 µM is 99%. The inhibition constant (Ki) at human μ-opiate receptor (sulfonamides (Table 17)) amounted to 15 nM. Moreover, the figures for the inhibition at 10 µM (on Serotonin (5HT) reuptake; in experiment [1] (setting [3])) were 90% and 78%, respectively.
Turning to `CN(C)C(c1ccccc1)C1CCC(NS(=O)(=O)c2ccc(C(C)(C)C)cc2)CC1` (stereo not shown) [compound 108, 4-tert-butyl-N-(4-((dimethylamino)(phenyl)methyl)cyclohexyl)benzene-sulfonamide hydrochloride], the inhibition at 1 µM on human μ-opiate receptor (1 μM, sulfonamides (Table 17)) amounted to 92%. The Ki on human μ-opiate receptor (sulfonamides (Table 17)) is 22 nM. Moreover, the inhibition at 10 µM (on Serotonin (5HT) reuptake; in experiment [1] (setting [3])) was 75% each time.
As to `CN(C)C(c1ccccc1)C1CCC(NS(=O)(=O)c2ccccc2[N+](=O)[O-])CC1` (stereo not shown) [compound 109, N-(4-((dimethylamino)(phenyl)methyl)cyclohexyl)-2-nitrobenzene-sulfonamide hydrochloride], on human μ-opiate receptor (1 μM, sulfonamides (Table 17)), the inhibition at 1 µM is 92%. Moreover, at human μ-opiate receptor (sulfonamides (Table 17)), the inhibition constant Ki came to 77 nM. Further, the inhibition at 10 µM was found to be 93% at Serotonin (5HT) reuptake and 76% in experiment [1] (setting [3]).
Turning to `CN(C)C(c1ccccc1)C1CCC(NS(=O)(=O)c2ccccc2)CC1` (stereo not shown) [compound 110, N-(4-((dimethylamino)(phenyl)methyl)cyclohexyl)benzenesulfonamide hydrochloride], on human μ-opiate receptor (1 μM, sulfonamides (Table 17)), the inhibition at 1 µM was 93%. Besides, the inhibitory constant (Ki) at human μ-opiate receptor (sulfonamides (Table 17)) was 25 nM. For the same compound, the figures for the inhibition at 10 µM (at Serotonin (5HT) reuptake; in experiment [1] (setting [3])) were 86% and 62%, respectively.
In the case of `CN(C)C(c1ccc(F)cc1)C1CCC(O)CC1` (stereo not shown) [compound 112, 4-[dimethylamino-(4-fluorophenyl)-methyl]-cyclohexanol], the inhibition at 1 µM on human μ-opiate receptor (setting [4]) was determined as 66%. Also, the inhibition at 10 µM is 82% at Serotonin (5HT) reuptake and 74% in experiment [1] (setting [3]).
In the same order, the values of `CN(C)C(c1cccc(F)c1)C1CCC(O)CC1` (stereo not shown) [compound 113, 4-[dimethylamino-(3-fluorophenyl)-methyl]-cyclohexanol] are 46%, 83% and 82%.
In the same order, the values of `CN(C)C(c1ccc(Cl)cc1)C1CCC(O)CC1` (stereo not shown) [compound 114, 4-[(4-chlorophenyl)-dimethylamino-methyl]-cyclohexanol] are 43%, 64% and 93%.
`CN(C)C(c1cccs1)C1CCC(O)CC1` (stereo not shown) [compound 115, 4-(dimethylamino-thiophen-2-yl-methyl)-cyclohexanol]: the inhibition at 1 µM on human μ-opiate receptor (setting [4]) came to 61%. The values for the inhibition at 10 µM (on Serotonin (5HT) reuptake; in experiment [1] (setting [3])) were 63% and 47%, respectively.
